Assay results reported in PubChem BioAssay AID2060494 (Molecular Pharmacology Branch, DTP, NCI, 2025).
pIC50: −log10 of the molar value.

Tested on: 435261-313-R-J1-PDC complex spheroid viability
Assay: Anticancer human tumor 435261-313-R-J1-PDC patient-derived colon adenocarcinoma cell line growth inhibition [GQUAD]
Settings: for pIC50: curve of first compound; for viability, T/C: stronger effect = lower value
In short: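 Multi-cell-type spheroids of tumor cells with HUVEC and mesenchymal stem cells, treated with drug combinations. Concentrations descend in half-log steps from near clinical Cmax, or from 10 microM where Cmax is unknown; viability read-out.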

[1] = second compound 0.0316 µM, first compound 0.0316 µM
[2] = second compound 0.0316 µM, first compound 0.1 µM
[3] = second compound 0.0316 µM, first compound 0.316 µM
[4] = second compound 0.0316 µM, first compound 1 µM
[5] = second compound 0.0316 µM, first compound 3.16 µM
[6] = second compound 0.0316 µM, first compound 10 µM
[7] = second compound 0.1 µM, first compound 0.0316 µM
[8] = second compound 0.1 µM, first compound 0.1 µM
[9] = second compound 0.1 µM, first compound 0.316 µM
[10] = second compound 0.1 µM, first compound 1 µM
[11] = second compound 0.1 µM, first compound 3.16 µM
[12] = second compound 0.1 µM, first compound 10 µM
[13] = second compound 0.316 µM, first compound 0.0316 µM
[14] = second compound 0.316 µM, first compound 0.1 µM
[15] = second compound 0.316 µM, first compound 0.316 µM
[16] = second compound 0.316 µM, first compound 1 µM
[17] = second compound 0.316 µM, first compound 3.16 µM
[18] = second compound 0.316 µM, first compound 10 µM
[19] = second compound 1 µM, first compound 0.0316 µM
[20] = second compound 1 µM, first compound 0.1 µM
[21] = second compound 1 µM, first compound 0.316 µM
[22] = second compound 1 µM, first compound 1 µM
[23] = second compound 1 µM, first compound 3.16 µM
[24] = second compound 1 µM, first compound 10 µM
[25] = second compound 3.16 µM, first compound 0.0316 µM
[26] = second compound 3.16 µM, first compound 0.1 µM
[27] = second compound 3.16 µM, first compound 0.316 µM
[28] = second compound 3.16 µM, first compound 1 µM
[29] = second compound 3.16 µM, first compound 3.16 µM
[30] = second compound 3.16 µM, first compound 10 µM
[31] = second compound 10 µM, first compound 0.0316 µM
[32] = second compound 10 µM, first compound 0.1 µM
[33] = second compound 10 µM, first compound 0.316 µM
[34] = second compound 10 µM, first compound 1 µM
[35] = second compound 10 µM, first compound 3.16 µM
[36] = second compound 10 µM, first compound 10 µM
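Also: spheroids exposed to the agents for seven days before readout.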
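For viability, T/C in this document: percent of vehicle control viability with DMSO wells as 100%.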

Compound: CC(C)n1c(=O)n(C)c2cnc3cc(F)c(-c4ccc(OCCCN5CCCCC5)nc4)cc3c21 + CN(C)c1ccc(Nc2c3ccc(NC(=O)CCN4CCCC4)cc3nc3cc(NC(=O)CCN4CCCC4)ccc23)cc1
- pIC50 (second compound 0.0316 µM): < 5.00
- pIC50 (second compound 0.1 µM): 5.15
- pIC50 (second compound 0.316 µM): 5.16
- pIC50 (second compound 1 µM): 5.12
- pIC50 (second compound 3.16 µM): 6.78
- pIC50 (second compound 10 µM): 7.22
- viability, T/C [1]: 127%
- viability, T/C [2]: 103%
- viability, T/C [3]: 92.8%
- viability, T/C [4]: 98.6%
- viability, T/C [5]: 89.2%
- viability, T/C [6]: 59.1%
- viability, T/C [7]: 75.2%
- viability, T/C [8]: 99.2%
- viability, T/C [9]: 97.7%
- viability, T/C [10]: 71.3%
- viability, T/C [11]: 85%
- viability, T/C [12]: 34.4%
- viability, T/C [13]: 88.8%
- viability, T/C [14]: 128%
- viability, T/C [15]: 109%
- viability, T/C [16]: 113%
- viability, T/C [17]: 73.7%
- viability, T/C [18]: 38.3%
- viability, T/C [19]: 93.3%
- viability, T/C [20]: 89.9%
- viability, T/C [21]: 63.7%
- viability, T/C [22]: 63.7%
- viability, T/C [23]: 70.3%
- viability, T/C [24]: 40%
- viability, T/C [25]: 63.7%
- viability, T/C [26]: 54.4%
- viability, T/C [27]: 42.5%
- viability, T/C [28]: 30.2%
- viability, T/C [29]: 39%
- viability, T/C [30]: 11.6%
- viability, T/C [31]: 68.4%
- viability, T/C [32]: 36.3%
- viability, T/C [33]: 14.8%
- viability, T/C [34]: 9.87%
- viability, T/C [35]: 4.77%
- viability, T/C [36]: 1.9%

Compound: CC(=O)O[C@H]1C(=O)[C@@]2(C)[C@H]([C@H](OC(=O)c3ccccc3)[C@]3(O)C[C@H](OC(=O)[C@H](O)[C@@H](NC(=O)c4ccccc4)c4ccccc4)C(C)=C1C3(C)C)[C@]1(OC(C)=O)CO[C@@H]1C[C@@H]2O + Cc1[nH]c2ccc(F)cc2c1-c1nc2c3cccnc3c3ncccc3c2[nH]1
- pIC50 (second compound 0.0316 µM): < 5.00
- pIC50 (second compound 0.1 µM): < 5.00
- pIC50 (second compound 0.316 µM): < 5.00
- pIC50 (second compound 1 µM): > 7.50
- pIC50 (second compound 3.16 µM): > 7.50
- pIC50 (second compound 10 µM): > 7.50
- viability, T/C [1]: 67.5%
- viability, T/C [2]: 71.4%
- viability, T/C [3]: 74.7%
- viability, T/C [4]: 65.8%
- viability, T/C [5]: 63.8%
- viability, T/C [6]: 76.8%
- viability, T/C [7]: 83.2%
- viability, T/C [8]: 78.5%
- viability, T/C [9]: 78.1%
- viability, T/C [10]: 57.8%
- viability, T/C [11]: 69.2%
- viability, T/C [12]: 71%
- viability, T/C [13]: 63.4%
- viability, T/C [14]: 66.2%
- viability, T/C [15]: 52.5%
- viability, T/C [16]: 48.9%
- viability, T/C [17]: 51%
- viability, T/C [18]: 60%
- viability, T/C [19]: 41.5%
- viability, T/C [20]: 48.1%
- viability, T/C [21]: 53%
- viability, T/C [22]: 46.4%
- viability, T/C [23]: 47.2%
- viability, T/C [24]: 42.2%
- viability, T/C [25]: 41.6%
- viability, T/C [26]: 40.8%
- viability, T/C [27]: 40.1%
- viability, T/C [28]: 24.6%
- viability, T/C [29]: 29%
- viability, T/C [30]: 29.1%
- viability, T/C [31]: 25.7%
- viability, T/C [32]: 32.3%
- viability, T/C [33]: 26.7%
- viability, T/C [34]: 24.4%
- viability, T/C [35]: 21.9%
- viability, T/C [36]: 28%

Compound: C#Cc1c(F)ccc2cc(O)cc(-c3ncc4c(N5CC6CCC(C5)N6)nc(OCC56CCCN5CC(F)C6)nc4c3F)c12 (stereo not given) + CN(C)c1ccc(Nc2c3ccc(NC(=O)CCN4CCCC4)cc3nc3cc(NC(=O)CCN4CCCC4)ccc23)cc1
- pIC50 (second compound 0.0316 µM): < 5.00
- pIC50 (second compound 0.1 µM): < 5.00
- pIC50 (second compound 0.316 µM): < 5.00
- pIC50 (second compound 1 µM): < 5.00
- pIC50 (second compound 3.16 µM): 5.45
- pIC50 (second compound 10 µM): 6.70
- viability, T/C [1]: 77%
- viability, T/C [2]: 118%
- viability, T/C [3]: 114%
- viability, T/C [4]: 58.1%
- viability, T/C [5]: 64.9%
- viability, T/C [6]: 48.8%
- viability, T/C [7]: 123%
- viability, T/C [8]: 110%
- viability, T/C [9]: 94.6%
- viability, T/C [10]: 99.6%
- viability, T/C [11]: 66.1%
- viability, T/C [12]: 60.5%
- viability, T/C [13]: 89.3%
- viability, T/C [14]: 130%
- viability, T/C [15]: 82%
- viability, T/C [16]: 78%
- viability, T/C [17]: 50.7%
- viability, T/C [18]: 64%
- viability, T/C [19]: 82.5%
- viability, T/C [20]: 87.9%
- viability, T/C [21]: 103%
- viability, T/C [22]: 64.5%
- viability, T/C [23]: 62.4%
- viability, T/C [24]: 54.7%
- viability, T/C [25]: 67.8%
- viability, T/C [26]: 65.8%
- viability, T/C [27]: 42.2%
- viability, T/C [28]: 42.5%
- viability, T/C [29]: 56.7%
- viability, T/C [30]: 9.31%
- viability, T/C [31]: 44.2%
- viability, T/C [32]: 73.5%
- viability, T/C [33]: 42.1%
- viability, T/C [34]: 23.6%
- viability, T/C [35]: 19.8%
- viability, T/C [36]: 0.2%

Compound: O=C(c1cc(Cc2n[nH]c(=O)c3ccccc23)ccc1F)N1CCN(C(=O)C2CC2)CC1 + Cc1cnc(CNC(=O)c2c(=O)c3ccc(N4CCCN(C)CC4)nc3n3c2sc2ccccc23)cn1
- pIC50 (second compound 0.0316 µM): < 5.00
- pIC50 (second compound 0.1 µM): < 5.00
- pIC50 (second compound 0.316 µM): < 5.00
- pIC50 (second compound 1 µM): > 7.50
- pIC50 (second compound 3.16 µM): > 7.50
- pIC50 (second compound 10 µM): > 7.50
- viability, T/C [1]: 76%
- viability, T/C [2]: 60.9%
- viability, T/C [3]: 66.3%
- viability, T/C [4]: 68.2%
- viability, T/C [5]: 84%
- viability, T/C [6]: 77.7%
- viability, T/C [7]: 65.2%
- viability, T/C [8]: 65.1%
- viability, T/C [9]: 58.3%
- viability, T/C [10]: 62%
- viability, T/C [11]: 64%
- viability, T/C [12]: 62.1%
- viability, T/C [13]: 59.4%
- viability, T/C [14]: 53.8%
- viability, T/C [15]: 58.7%
- viability, T/C [16]: 59.6%
- viability, T/C [17]: 53%
- viability, T/C [18]: 52.2%
- viability, T/C [19]: 38.6%
- viability, T/C [20]: 45.9%
- viability, T/C [21]: 38.1%
- viability, T/C [22]: 42.7%
- viability, T/C [23]: 55.9%
- viability, T/C [24]: 37.6%
- viability, T/C [25]: 26.4%
- viability, T/C [26]: 9.89%
- viability, T/C [27]: 25.5%
- viability, T/C [28]: 15.3%
- viability, T/C [29]: 27.3%
- viability, T/C [30]: 20.5%
- viability, T/C [31]: 0.23%
- viability, T/C [32]: 0.23%
- viability, T/C [33]: 0.21%
- viability, T/C [34]: 0.23%
- viability, T/C [35]: 0.22%
- viability, T/C [36]: 0.23%

Compound: C=CCn1c(=O)c2cnc(Nc3ccc(N4CCN(C)CC4)cc3)nc2n1-c1cccc(C(C)(C)O)n1 + CN(C)c1ccc(Nc2c3ccc(NC(=O)CCN4CCCC4)cc3nc3cc(NC(=O)CCN4CCCC4)ccc23)cc1
- pIC50 (second compound 0.0316 µM): < 5.00
- pIC50 (second compound 0.1 µM): < 5.00
- pIC50 (second compound 0.316 µM): 5.12
- pIC50 (second compound 1 µM): < 5.00
- pIC50 (second compound 3.16 µM): < 5.00
- pIC50 (second compound 10 µM): 6.45
- viability, T/C [1]: 128%
- viability, T/C [2]: 145%
- viability, T/C [3]: 84.1%
- viability, T/C [4]: 103%
- viability, T/C [5]: 81.8%
- viability, T/C [6]: 65.2%
- viability, T/C [7]: 96.4%
- viability, T/C [8]: 89.1%
- viability, T/C [9]: 87.9%
- viability, T/C [10]: 69.7%
- viability, T/C [11]: 91.7%
- viability, T/C [12]: 73%
- viability, T/C [13]: 92.7%
- viability, T/C [14]: 81.5%
- viability, T/C [15]: 86.6%
- viability, T/C [16]: 78.1%
- viability, T/C [17]: 64%
- viability, T/C [18]: 45.5%
- viability, T/C [19]: 80.8%
- viability, T/C [20]: 98.7%
- viability, T/C [21]: 66.6%
- viability, T/C [22]: 90.4%
- viability, T/C [23]: 75.8%
- viability, T/C [24]: 54.6%
- viability, T/C [25]: 50.9%
- viability, T/C [26]: 48.2%
- viability, T/C [27]: 63.4%
- viability, T/C [28]: 70.1%
- viability, T/C [29]: 57.8%
- viability, T/C [30]: 34%
- viability, T/C [31]: 32.7%
- viability, T/C [32]: 90.5%
- viability, T/C [33]: 44.8%
- viability, T/C [34]: 31.8%
- viability, T/C [35]: 23.9%
- viability, T/C [36]: 9.35%
